According to patent US9770526B2, “Absorbent article” (priority 2011, dated 2017):
Where two headings read alike, the source gives them in different places.

Assays:
[1] = Water solubility in 100 g of water at 25° C.
From the text: As used herein, the term “solubility” in regard to water solubility includes cases where the sample completely dissolves in deionized water to form a homogeneous mixture, and cases where the sample is completely emulsified. As used herein, “completely” means that no mass of the sample remains in the deionized water.

[2] = Absorbent body migration rate; conditions: Example 2: agent coated on top sheet only, about 5 g/m^2; horse EDTA blood
Experimental: In addition to the rewetting rate evaluation, the “absorbent body migration rate” was also measured as the time until migration of blood from the top sheet to the absorbent body after the second dropping of blood. The absorbent body migration rate is the time from […].

[3] = Rewetting rate of sanitary napkin; conditions: Example 2: agent coated on top sheet only, about 5 g/m^2; horse EDTA blood
Experimental: (obtained by adding ethylenediaminetetraacetic acid (hereunder, “EDTA”) to horse blood to prevent coagulation) was dropped through the hole using a pipette (once), and after 1 minute, 3 g of horse EDTA blood at 37±1° C. was again added dropwise through the acrylic board hole with a pipette (twice).
After the second dropping of blood, the acrylic board was immediately removed and 10 sheets of filter paper (50 mm×35 mm) were placed on the location where the blood had been dropped, and then a weight was placed thereover to a pressure of 30 g/cm^2. After 1 minute, the filter paper was removed and the “rewetting rate” was calculated by the following formula. Rewetting rate (%)=100×(filter paper mass after test−initial filter paper mass)/6

[4] = Surface tension of blood containing blood modifying agent (pendant drop method); set-up: species or system sheep; conditions: Amount 0.10 mass %; measuring temperature 35° C.
Experimental: The surface tension of blood containing a blood modifying agent was measured by the pendant drop method, using a Drop Master500 contact angle meter by Kyowa Interface Science Co., Ltd. The surface tension was measured after adding a prescribed amount of blood modifying agent to sheep defibrinated blood, and thoroughly shaking. The measurement was accomplished automatically with a device, and the surface tension γ was determined by the following formula (see FIG. 8). γ=g×ρ×(de)^2×1/H The density ρ was measured at the temperatures listed in Table 6, according to JIS K 2249-1995, “Density test methods and density/mass/volume conversion tables”, “5. Vibrating density test method”. The measurement was accomplished using a DA-505 by Kyoto Electronics Co., Ltd.

Compound	Absorbent body migration rate [2]	Rewetting rate (%) [3]	Water solubility [1]	also measured
Polypropylene glycol [No. 2-35]	–	–	–	Water solubility (g) [1]: 0.05< g
Isopropyl citrate [No. 2-34]	5 s	12.2%	–	–
Polypropylene glycol [No. 2-20]	–	–	<0.05 g	–
CCCCCCCCCCCCOC(=O)CCCCCCCCCCC [No. 2-17, Ester of dodecanoic acid (C12) and dodecyl alcohol (C12)]	5 s	1.8%	–	Surface tension (mN/m) [4]: 58.8 mN/m
Glycerin and fatty acid triester with 2-ethylhexanoic acid (CO as the entire fatty acid portion [No. 2-9]	3 s	2.0%	–	–
Polyoxybutylenepolyoxypropylene glycol [No. 2-24]	–	–	<0.05 g	–
Polybutylene glycol [No. 2-23]	–	–	<0.05 g	–
CCCCCCCC(=O)OCC(COC(=O)CCCCCCC)OC(=O)CCCCCCC [No. 2-8, Glycerin and fatty acid triester with octanoic acid (C8) as the entire fatty acid portion]	3 s	0.3%	–	Water solubility ([1]; in 100 g of water at 25° C., 24 hours, visual): <0.05 g
Polypropylene glycol [No. 2-22]	–	–	<0.05 g	–
CCCCCCCCCCCCCC(=O)OCCCCCCCCCCCC [No. 2-18, Ester of tetradecanoic acid (C14) and dodecyl alcohol (C12)]	4 s	1.8%	–	–
CCCCCCCCOC(=O)CCCCC(=O)OCCCCCCCC [No. 2-16, Dioctyl adipate]	6 s	1.7%	–	–
Glycerin and fatty acid diester with octanoic acid as the fatty acid [No. 2-12]	9 s	4.2%	–	–
CCCCC(CC)C(=O)OCC(C)(C)COC(=O)C(CC)CCCC (stereo not drawn) [No. 2-15, Neopentylglycol di-2-ethylhexanoate]	5 s	2.0%	<0.05 g	–
Polypropylene glycol [No. 2-19]	–	–	<0.05 g	–
CCCCCCCCCCCC(=O)OCC(O)CO (stereo not drawn) [No. 2-31, lauric acid monoglyceride]	–	6.2%	–	–
Polypropylene glycol [No. 2-21]	–	–	<0.05 g	–
